Results on 46 molecules are retold here after patent publication US11414431B2, “Substituted pyrazolo[1,5-a]pyrimidines as TYK2 inhibitors” (Nimbus Lakshmi, Inc., priority 2018, dated 2022).

Molecules are shown by their SMILES. Some results are limits rather than exact numbers.

One experiment deals with IL-12 induced STAT4 phosphorlyation mediated by TYK2/JAK2. Put plainly: IL-12 Induced pSTAT4 in Human PBMC. In kind it is cell-based. The conditions noted are these: 1.7 ng/mL IL-12 for 30 minutes. The method, then: Human PBMC were isolated from buffy coat and are stored frozen for assays as needed. […] 15 μL of compound or DMSO was added to the well at the desired concentrations and incubated at 1 hr at 37° C. 15 μL of stimulus (final concentration of 1.7 ng/mL IL-12) was added for 30 minutes prior to pSTAT4 and total STAT4 analysis using cell lysates prepared and analyzed by MSD reagents as per manufacturer protocol. The final DMSO concentration of compound in the assay was 0.1%.
The IL-12 induced pSTAT4 assay evaluates the inhibition of IL-12 induced STAT4 phosphorlyation mediated by TYK2/JAK2 (heterpdimeric complex).
Consider `CNc1cc(Nc2cccn(-c3ncccc3F)c2=O)nc2c(C(=O)N[C@@H]3CC[C@@]3(C)OC)cnn12` [Compound I-415], for which the IC50 is less than 0.1 µM.

On to `CNc1cc(-c2cn([C@@H]3CCOC[C@H]3F)c3ncccc23)nc2c(C(=O)N[C@H]3CC[C@H]3O)cnn12` [Compound I-918], for which the IC50 is less than 0.1 µM. In turn, `CNc1cc(Nc2cccn([C@H]3CCCOC3)c2=O)nc2c(C(=O)NC3CCC3(F)F)cnn12` (stereo partly shown) [Compound I-312] displayed an IC50 of less than 0.1 µM. In the case of `CNc1cc(Nc2cccn([C@H]3CCC[C@H](OC)C3)c2=O)nc2c(C(=O)N[C@H]3CC[C@@H]3F)cnn12` [Compound I-231], the IC50 is less than 0.1 µM.

The molecule `CNc1cc(Nc2cccn([C@H]3C[C@@H]3OC)c2=O)nc2c(C(=O)N[C@H]3CC[C@@H]3F)cnn12` [Compound I-158] showed an IC50 of less than 0.1 µM. Consider `CNc1cc(Nc2cccn(C3CCOCC3)c2=O)nc2c(C(=O)N[C@@H]3CC[C@@H]3F)cnn12` [Compound I-193], for which the IC50 was less than 0.1 µM. In turn, `CNc1cc(-c2cnc3n([C@@H]4CCOC[C@H]4OC)cccc2-3)nc2c(C(=O)N[C@@H]3CC[C@H]3OC)cnn12` [Compound I-896] returned an IC50 of less than 0.1 µM. Molecule `CNc1cc(Nc2cccn([C@H]3C[C@H](OC)C3)c2=O)nc2c(C(=O)N[C@@H]3CC[C@H]3F)cnn12` [Compound I-178] registered an IC50 of less than 0.1 µM. On the same count and under the same terms, as for `CNc1ccc(-c2cc(NC)n3ncc(C(=O)N[C@H]4CC[C@@H]4F)c3n2)n2ccnc12` [Compound I-481], the figure is less than 0.1 µM; as for `CNc1cc(-c2cn([C@H]3CC(=O)N(C4CCOCC4)C3)c3ncccc23)nc2c(C(=O)NC3CC[C@@H]3OC)cnn12` (stereo partly shown) [Compound I-1027], 0.1 to 0.5 µM.

As for `CNc1cc(Nc2cccn([C@H]3CCCOC3)c2=O)nc2c(C(=O)N[C@@H]3CCC3(F)F)cnn12` [Compound I-314], the IC50 is less than 0.1 µM.

As for `CNc1cc(-c2cn([C@H]3COC[C@@H]3OC)c3ncccc23)nc2c(C(=O)NC3CC[C@H]3F)cnn12` (stereo partly shown) [Compound I-528], the IC50 is less than 0.1 µM. `CNc1cc(-c2cnc3n([C@@H]4COC[C@H]4OC)cccc2-3)nc2c(C(=O)NC3CC[C@H]3O)cnn12` (stereo partly shown) [Compound I-865] displayed an IC50 of 0.5 to 1 µM. Molecule `CNc1cc(Nc2cccn([C@@H]3CCC[C@H](C#N)C3)c2=O)nc2c(C(=O)N[C@@H]3CC[C@H]3OC)cnn12` [Compound I-260] registered an IC50 of less than 0.1 µM.

For `CNc1cc(-c2cn([C@@H]3COC[C@H]3OC)c3ccccc23)nc2c(C(=O)N[C@H]3CC[C@H]3O)cnn12` [Compound I-787], the IC50 is less than 0.1 µM. In turn, `CNc1cc(Nc2cccn(-c3ccccn3)c2=O)nc2c(C(=O)N[C@@H]3CC[C@H]3OC)cnn12` [Compound I-264] displayed an IC50 of less than 0.1 µM. The same measure, in the same setting: as for `CNc1cc(Nc2cccn([C@H]3C[C@H](F)C3)c2=O)nc2c(C(=O)N[C@H]3CC[C@@H]3F)cnn12` [Compound I-165], the figure is less than 0.1 µM; as for `CO[C@H]1CCC1NC(=O)c1cnn2c(N)cc(-c3cnc4n([C@H]5COC[C@@H]5OC)cccc3-4)nc12` (stereo partly shown) [Compound I-999], 0.1 to 0.5 µM. Molecule `CNc1cc(-c2cnc3n([C@H]4COC[C@@H]4OC)cccc2-3)nc2c(C(=O)N[C@@H]3CC[C@@H]3F)cnn12` [Compound I-840] gave an IC50 of less than 0.1 µM. On the same count and under the same terms, as for `CNc1cc(-c2cn([C@H]3CC3(F)F)c3ncccc23)nc2c(C(=O)N[C@H]3CC[C@H]3O)cnn12` [Compound I-552], the figure is less than 0.1 µM; as for `CNc1cc(Nc2cccn(-c3ncccc3F)c2=O)nc2c(C(=O)NC3CC[C@@]3(C)OC)cnn12` (stereo partly shown) [Compound I-414], less than 0.1 µM.

`CNc1cc(Nc2cccn([C@@H]3CCC[C@@H]3O)c2=O)nc2c(C(=O)N[C@@H]3CCC3(F)F)cnn12` [Compound I-305] had an IC50 of less than 0.1 µM. Regarding `CNc1cc(Nc2cccn(C3COC3)c2=O)nc2c(C(=O)N[C@@H]3C[C@@H]3F)cnn12` [Compound I-125], the IC50 was less than 0.1 µM.

The molecule `CNc1cc(-c2cn(C3COC3)c3ncccc23)nc2c(C(=O)NC3CCC3(F)F)cnn12` (stereo not shown) [Compound I-673] showed an IC50 of less than 0.1 µM.

As for `CNc1cc(-c2cn([C@H]3CCOC[C@@H]3OC)c3ncccc23)nc2c(C(=O)N[C@H]3CC[C@@H]3OC)cnn12` [Compound I-663], the IC50 is less than 0.1 µM.

Molecule `CNc1cc(-c2cn([C@H]3[C@@H]4COC[C@@H]43)c3ncccc23)nc2c(C(=O)N[C@H]3CC[C@@H]3O)cnn12` [Compound I-915] showed a concentration for half-maximal inhibition (IC50) of less than 0.1 µM. With `CNc1cc(Nc2cccn([C@H]3CCC[C@H]3O)c2=O)nc2c(C(=O)N[C@H]3CC[C@]3(C)OC)cnn12` [Compound I-391], the IC50 is less than 0.1 µM. The molecule `CNc1cc(Nc2cccn([C@@H]3CCCOC3)c2=O)nc2c(C(=O)N[C@@H]3CC[C@H]3F)cnn12` [Compound I-196] returned an IC50 of less than 0.1 µM. `CNc1cc(-c2cn([C@@H]3CC(=O)N(C)C3)c3ncccc23)nc2c(C(=O)N[C@H]3CC[C@@H]3OC)cnn12` [Compound I-1022]: the IC50 fell in the range of 0.1 to 0.5 µM. Same read-out and setting: the figure for `CNc1cc(Nc2cccn([C@H]3C[C@H](F)C3)c2=O)nc2c(C(=O)N[C@H]3CC[C@H](O)C3)cnn12` [Compound I-436] is less than 0.1 µM; for `CNc1cc(-c2cn([C@H]3CC(=O)N(C4CCOCC4)C3)c3ncccc23)nc2c(C(=O)N[C@H]3CC[C@@H]3OC)cnn12` [Compound I-1030] it is 0.1 to 0.5 µM. In the case of `CNc1cc(-c2cn([C@H]3COC[C@@H]3OC)c3ccccc23)nc2c(C(=O)N[C@H]3CC[C@H]3O)cnn12` [Compound I-790], the IC50 is less than 0.1 µM.

Take `CNc1cc(Nc2cccn([C@H]3[C@@H]4COC[C@@H]43)c2=O)nc2c(C(=O)N[C@@H]3CC[C@@H]3F)cnn12` [Compound I-205]: the half-inhibitory concentration (IC50) is less than 0.1 µM. `CNc1cc(Nc2cccn([C@H]3CCC[C@H](OC)C3)c2=O)nc2c(C(=O)NC3CC[C@@H]3F)cnn12` (stereo partly shown) [Compound I-230] had an IC50 of less than 0.1 µM. Molecule `CNc1cc(-c2cn([C@H]3COC[C@H]3F)c3ncccc23)nc2c(C(=O)N[C@H]3COC[C@H]3O)cnn12` [Compound I-726] had an IC50 of less than 0.1 µM. Regarding `CNc1cc(-c2cn([C@H]3CCOC[C@H]3OC)c3ncccc23)nc2c(C(=O)N[C@H]3CC[C@@H]3OC)cnn12` [Compound I-666], the 50% inhibitory concentration (IC50) is less than 0.1 µM.

`CNc1cc(-c2cn([C@@H]3CCOC[C@H]3O)c3ncccc23)nc2c(C(=O)N[C@H]3CC[C@@H]3F)cnn12` [Compound I-538]: the IC50 was less than 0.1 µM.

Molecule `CNc1cc(Nc2cccn(-c3ncccc3F)c2=O)nc2c(C(=O)N[C@@H]3CC[C@H]3OC)cnn12` [Compound I-266] displayed a half-inhibitory concentration (IC50) of less than 0.1 µM.

The same experiment, now with this note: 0.5 h, 1.7 ng/mL IL-12 for 30 minutes.
Regarding `CNc1cc(-c2cnc3n([C@H]4COC[C@@H]4O)cccc2-3)nc2c(C(=O)NC3CC[C@@H]3F)cnn12` (stereo partly drawn) [Compound I-826, N-((trans-1,2)-2-Fluorocyclobutyl)-5-(7-((3S,4R)-4-hydroxytetrahydrofuran-3-yl)-7H-pyrrolo[2,3-b]pyridin-3-yl)-7-(methylamino)pyrazolo[1,5-a]pyrimidine-3-carboxamide], the IC50 is less than 0.1 µM. Take `CNc1cc(-c2cnc3n([C@@H]4CCOC[C@@H]4F)cccc2-3)nc2c(C(=O)NC3CC[C@H]3O)cnn12` (stereo partly drawn) [Compound I-939, 5-(7-((3R,4R)-3-fluorotetrahydro-2H-pyran-4-yl)-7H-pyrrolo[2,3-b]pyridin-3-yl)-N-((cis-1,2)-2-hydroxycyclobutyl)-7-(methylamino)pyrazolo[1,5-a]pyrimidine-3-carboxamide]: the half-maximal inhibitory concentration (IC50) was 0.1 to 0.5 µM.

`CNc1cc(Nc2cccn([C@@H]3CC[C@H]3OC)c2=O)nc2c(C(=O)N[C@H]3CC[C@@H]3O)cnn12` [Compound I-20, N-((1S,2S)-2-Hydroxycyclobutyl)-5-((1-((1R,2R)-2-methoxycyclobutyl)-2-oxo-1,2-dihydropyridin-3-yl)amino)-7-(methylamino)pyrazolo[1,5-a]pyrimidine-3-carboxamide] gave an IC50 of less than 0.1 µM. `CNc1cc(-c2cn(CC(=O)N3CCC3)c3ncccc23)nc2c(C(=O)NC3CC[C@@H]3OC)cnn12` (stereo in doubt) [Compound I-928, 5-(1-(2-(azetidin-1-yl)-2-oxoethyl)-1H-pyrrolo[2,3-b]pyridin-3-yl)-N-(2-methoxycyclobutyl)-7-(methylamino)pyrazolo[1,5-a]pyrimidine-3-carboxamide] came in with an IC50 of 0.1 to 0.5 µM.

As for `CNc1cc(Nc2cccn(-c3ccc(C)nc3)c2=O)nc2c(C(=O)N[C@@H]3C[C@H]3OC)cnn12` [Compound I-34, N-((1R,2R)-2-Methoxycyclopropyl)-5-((6′-methyl-2-oxo-2H-[1,3′-bipyridin]-3-yl)amino)-7-(methylamino)pyrazolo[1,5-a]pyrimidine-3-carboxamide], the IC50 is less than 0.1 µM.

Molecule `CNc1cc(-c2cn([C@H]3CCC[C@H]3F)c3ncccc23)nc2c(C(=O)NC3COC[C@H]3O)cnn12` (stereo partly drawn) [Compound I-721, 5-(1-((1S,2R)-2-Fluorocyclopentyl)-1H-pyrrolo[2,3-b]pyridin-3-yl)-N-((cis-3,4)-4-hydroxytetrahydrofuran-3-yl)-7-(methylamino)pyrazolo[1,5-a]pyrimidine-3-carboxamide] came in with an IC50 of less than 0.1 µM. `CNc1cc(-c2cn([C@H]3[C@@H]4COC[C@@H]43)c3ncccc23)nc2c(C(=O)NC3CC[C@@H]3OC)cnn12` (stereo partly drawn) [Compound I-792, 5-(1-((1R,5S,6r)-3-oxabicyclo[3.1.0]hexan-6-yl)-1H-pyrrolo[2,3-b]pyridin-3-yl)-N-((trans-1,2)-2-methoxycyclobutyl)-7-(methylamino)pyrazolo[1,5-a]pyrimidine-3-carboxamide] showed an IC50 of less than 0.1 µM. `CO[C@@H]1CCC1NC(=O)c1cnn2c3c(c(Nc4cccn(C(C)C)c4=O)nc12)OCCN3` (stereo in doubt) [Compound I-759, 5-((1-Isopropyl-2-oxo-1,2-dihydropyridin-3-yl)amino)-N-(2-methoxycyclobutyl)-2,3-dihydro-1H-pyrazolo[5′,1′:2,3]pyrimido[5,4-b][1,4]oxazine-7-carboxamide] gave an IC50 of less than 0.1 µM.
